Experimental data from PubChem BioAssay (NCI).
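Step 1: Grow cells in 96-well plates. Step 2: Expose to compound for 48 hours at 5 concentrations. Step 3: Interpolate endpoints linearly; if unreached, use highest concentration. TGI: total growth inhibition.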

Legend:
Assay in all cases: DTP human tumour cell line panel, 48 h
MDA-MB-435 = test system: MDA-MB-435
UACC-257 melanoma = test system: UACC-257 melanoma
HOP-62 NSCLC = test system: HOP-62 NSCLC
SF-539 CNS = test system: SF-539 CNS
T-47D breast = test system: T-47D breast
IGROV1 ovarian = test system: IGROV1 ovarian
K-562 leukemia = test system: K-562 leukemia
HOP-92 NSCLC = test system: HOP-92 NSCLC
ACHN renal = test system: ACHN renal
786-0 renal = test system: 786-0 renal
NCI-H23 lung = test system: NCI-H23 lung
COLO 205 colon = test system: COLO 205 colon
SK-MEL-5 melanoma = test system: SK-MEL-5 melanoma
SF-295 CNS = test system: SF-295 CNS
TK-10 renal = test system: TK-10 renal
MOLT-4 leukemia = test system: MOLT-4 leukemia
BT-549 breast = test system: BT-549 breast
KM12 colon = test system: KM12 colon
RXF 393 renal = test system: RXF 393 renal
SNB-78 CNS = test system: SNB-78 CNS

Structure (SMILES)	TGI (MDA-MB-435) [µM]	TGI (UACC-257 melanoma) [µM]	TGI (HOP-62 NSCLC) [µM]	TGI (SF-539 CNS) [µM]	TGI (T-47D breast) [µM]	TGI (IGROV1 ovarian) [µM]	TGI (K-562 leukemia) [µM]	TGI (HOP-92 NSCLC) [µM]	TGI (ACHN renal) [µM]	TGI (786-0 renal) [µM]	TGI (NCI-H23 lung) [µM]	TGI (COLO 205 colon) [µM]	TGI (SK-MEL-5 melanoma) [µM]	TGI (SF-295 CNS) [µM]	TGI (TK-10 renal) [µM]	TGI (MOLT-4 leukemia) [µM]	TGI (BT-549 breast) [µM]	TGI (KM12 colon) [µM]	TGI (RXF 393 renal) [µM]	TGI (SNB-78 CNS) [µM]
COc1ccc(Cc2nccc3cc(OC)c(OC)cc23)cc1OC	> 100	> 100	> 100	> 100	> 100	> 100	> 100	> 100	> 100	> 100	> 100	> 100	99.3	> 100	> 100	> 100	> 100	> 100		
CCCCC(=O)Oc1ccc2c(C)cc(=O)oc2c1	> 100	> 100	> 100	> 100	> 100	> 100	> 100	> 100	> 100	> 100	> 100	> 100	> 100	> 100	> 100	> 100	> 100	> 100	> 100	
O=C(O)c1oc(C(=O)O)c(C(=O)O)c1C(=O)O		> 100	> 100		> 100	> 100	> 100	> 100	> 100	> 100	> 100		> 100	> 100	> 100	> 100	> 100	> 100	> 100	
c1ccc(C[n+]2cccc(-c3cc4ccccc4[nH]3)c2)cc1	43.7	32.3	96.4		> 100	42.6	77.8	54	> 100	> 100	71	28.8	23.8	> 100	> 100	91.1	36.6	32	> 100	
N=C(N)SCc1cccc2c(=O)cc(-c3ccccc3)oc12	21.5	26	44.8	20.9	15.9	30.2	> 42.2	16.9	15.5	23.3	31.3	27.3	29.8	26.5	26.8	8.79	28.2	27.3	19.5	31.7
O=C1OCc2cccc3c2-c2c1cccc2C(=O)OC3			> 100	> 100		> 100	> 100	92.2			> 100	> 100	> 100	> 100	> 100	> 100		> 100	> 100	> 100
CCCCS(=O)(=O)Nc1ccc(Nc2c3ccccc3nc3ccccc23)c(OC)c1		18.6	10.7	5.98		24.9	16.5	9.08			11.3	20.2	18.1	9.84		3.97		14.8	11	18.9
NC(Cc1ccccc1)(C(=O)O)C(=O)O	> 100	> 100	> 100	> 100	> 100	> 100	> 100	> 100	> 100	> 100	> 100	> 100	> 100	> 100	> 100	> 100	> 100	> 100	> 100	
O=C(O)C12CCCC(CCC1)C2		> 100	> 100	> 100		> 100	> 100	> 100	> 100		> 100	> 100	> 100	> 100	> 100	> 100		> 100	> 100	> 100
